Publication PMC9028786, “The Ribosome Is the Ultimate Receptor for Trypsin Modulating Oostatic Factor (TMOF)” (Biomolecules, 2022)
Ends that are not written are not given here.

Experiments:
E. coli ribosome = experiment: Binding of AeaTMOF-FITC to purified E. coli ribosomes; parameters: species or system Escherichia coli
Experimental: The purification of E. coli ribosomes is a modification of earlier published methods. Briefly, E. coli (BL21) cells were grown in LB medium for 24 h to OD600 of 1.1, and the cells were centrifuged at 5000 rpm at 6 °C for 5 min. The supernatant was discarded and the pellet was washed with 40 mM HEPES-KOH pH7.4, 100 mM NaCl, and 2 mM Mg(OAc)2 buffer. The suspension was centrifuged at 6000 rpm for 5 min, the supernatant discarded, and the pellet was frozen at −80 °C and stored overnight. The frozen pellet was taken up in 10 mL of sonication buffer of 20 mM HEPES-KOH pH 7.5, 100 NH4OAc, 6 mM βME, 0.5 mM Na-EDTA, and 0.5% Tween 20 containing 100 units of RNase inhibitor, and the solution was sonicated at 40% power for 10 s, 50% power for 10 s, and 60% power for 20 s. During the sonication, the tube was immersed in an ice bath. The lysed cell solution (25 mL) in sonication buffer was centrifuged at 30,000 g in a Beckman ultracentrifuge using a 70Ti centrifuge rotor for 30 min at 4 °C. After centrifugation, the supernatant was collected, and the pellet discarded. […] The amount of the protein in the ribosome preparation and the ribosomal RNA was determined (2.28 mg/mL protein and 3.932 mg/mL ribosomal RNA). […]
Purified E. coli ribosomes (1 μL, 9.4 μg) in tight association buffer (20 mM HEPES-KOH pH 7.6, 6 mM Mg(OAc)2, 30 mM NH4OAc, and 6 mM βME) were incubated in Eppendorf tubes containing 100 μL of tight association buffer and 5 μL of AeaTMOF-FITC (0–0.2 μM) (Specific activity 8333 Fluorescence Units/pmol) for 60 min at 30 °C with gentle shaking. […] The washing by centrifugation with 5% TCA was repeated 3 times, and after the final centrifugation, the pellets were dissolved in 100 μL of PBS containing 0.4N NaOH, and the fluorescence of the dissolved pellets was read in a GloMax multidetector system using a blue filter (Excitation at 490 nm and Emission at 510–570 nm). All data were corrected for nonspecific fluorescence when incubations were run without AeaTMOF-FITC or with AeaTMOF-FITC and without ribosomes. […]

[1] = tested on: trypsin mRNA in the gut epithelial cells; conditions: gut epithelial cells of Ae. aegypti and Neobellieria bullata; cited from earlier work
From the text: Several of these ABC transporters with 80–100% similarity with the AeaTMOF receptor are also found in several Aedes, Anopheles, and ...

bacterial 70 S ribosome = experiment: Inhibition of luciferase translation in E. coli S30 extract; format: biochemical, Escherichia coli
Experimental: To test the effect of AeaTMOF and Oncocin112 (1–13) on the translation of Luciferase by the bacterial 70 S ribosome, an E. coli S30 lysate extract system for circular DNA (Promega) containing a plasmid pBestluc DNA vector (4486 bp) (1 mg/mL) 0.3 μL, amino acid mixture without methionine (1 mM) 1.25 μL, amino acid mixture without Leucine (1 mM) 1.25 μL, S30 premix (including ribosomes) without amino acids 5 μL, S30 extract circular 3.5 μL, RNasin (8 U, 112 ng) 0.2 μL, different concentrations of AeaTMOF or Oncocin112 (1–13) (0.001 μM to 1000 μM), and nuclease-free water to a volume of 12.5 μL were incubated for 2 h at 37 °C. […] After incubation, 87.5 μL of GLO lysis buffer (Promega) containing beetle luciferin was added, mixed, and aliquots (5 μL) were removed, and their luminescence read in a GLOMAX multidetector system. […] The decrease in luminescence (% ± SEM) in the presence of increasing log AeaTMOF or Oncocin112 (1–13) concentrations was then plotted using GrapPad Prism 3.

[2] = tested on: E. coli CGSC strain7636 cells expressing SbmA^+; experiment: Growth/viability of E. coli CGSC strain7636 expressing SbmA; format: cell-based, Escherichia coli; conditions: 3 and 10 mM peptide, 37 °C, 18 h, p < 0.05 vs control
Experimental: (§1) We aimed to find out if AeaTMOF can also stop bacterial growth as, was shown for the proline-rich Oncocin112 that binds to the bacterial ribosome, stopping protein translation, bacterial growth, and causing bacterial death. E. coli CGSC strain7636 (2.7 × 10^4 cells) SbmA^+, expressing the proline-rich peptides importer SbmA, were incubated in 96-well plate containing 100 μL/well of LB medium, 0.4 mM of IPTG, 0.1 mM of ampicillin, and different concentrations of AeaTMOF and Oncocin112 (1–13) (3 mM and 10 mM) in different wells. The 96-well plate was incubated at 37 °C for 18 h and bacterial growth was followed at 630 nm using Biotech ElX808 absorbance microplate reader. Control wells contained bacterial cells growing without AeaTMOF or oncocin112 (1–13). […] After the incubations in the presence of Oncocin112 (1–13) or AeaTMOF of 10 mM and 3 mM, aliquots (0.5 μL) were removed from each well and spread on LB agar plates containing 0.1 mM of ampicillin, and the plates were incubated overnight at 37 °C and viable colonies were counted. Incubations were done in triplicates and the experiments were repeated twice. Results are expressed as means of three determinations ± SEM.

[3] = tested on: E. coli mutant cells CGSC strain 8547 SbmA^- expressing only ABC-tmfA importer; experiment: Growth/viability of E. coli mutant CGSC strain 8547 SbmA^- expressing ABC-tmfA importer; format: cell-based, Escherichia coli
Experimental: E. coli CGSC strain […] lacking the SbmA importer expressing the ABCtmfA receptor/importer was prepared using plasmid pTAC-MAT-2 ABCtmfA importer/receptor as described earlier. [3,4,5 ^3H]Leucine 250 μCi, Spc Act 100–150 Ci/mmol was purchased from Perkin Elmer (Waltham, MA, USA). AeaTMOF-FITC (H-YDPAPPPPPPK(FITC)K-OH) was synthesized at the University of Colorado Anschutz School of Medicine protein core. AeaTMOF-FITC was purified by HPLC showing a single peak, and mass spectrometry analysis of the peak identified the 3 expected ions at 455.7, 607.3, and 910.3, showing an expected Mr 1019.56 as was described earlier. Synthetic AeaTMOF (H-YDPAPPPPPP-OH) and a short Oncocin112(1–13) (H-VDKPPYLPRPRPP-OH), a 13 amino acids oncocin112 peptide, 6 amino acids shorter than the original oncocin112 of 19 amino acids, were synthesized and purified by HPLC [16]. After HPLC purifications of AeaTMOF, oncocin112 (1–13), and AeaTMOF-FITC, the TFA ions were exchanged with phosphate ions.
as §1

luciferase = experiment: Effect on activity of pre-synthesized luciferase; format: biochemical, Beetle; conditions: results not shown
Experimental: Incubations of E. coli S30 extract synthesizing Beetle luciferase in the presence of an increasing concentration of AeaTMOF (0.001 to 750 μM) stopped the biosynthesis of luciferase, diminishing its activity on Beetle luciferin as measured in luminescence units. The activity of the in vitro synthesized luciferase on Beetle luciferin at very low concentration of AeaTMOF (0.001 μM) was similar to luciferase activity without AeaTMOF, and this luminescence was used to calculate the decrease in luminescence (%) after incubation with increasing concentrations of AeaTMOF (Figure 1A). Higher concentrations of AeaTMOF (higher than 0.001 μM) caused a linear decrease in the synthesis of luciferase and a decline in luminescence (%) reaching IC50 (inhibition concentration of 50%) at 1 μM (Figure 1A). […] AeaTMOF is not an inhibitor of luciferase.

**Q.** With “H-YDPAPPPPPPK(FITC)K-OH [AeaTMOF-FITC, H-[…](FITC)K-OH, FITC-labelled AeaTMOF]” as the substance, how does the “Kassoc, affinity constant” value (E. coli ribosome; calculated from specific binding KD) read?
**A.** 4.3e+07 M⁻¹

**Q.** What about the Kd (E. coli ribosome; purified E. coli (BL21) ribosomes 9.4 μg, AeaTMOF-FITC 0–0.2 μM, tight association buffer pH 7.6, 60 min at 30 °C, TCA precipitation, fluorescence, nonspecific binding subtracted, nonlinear regression, ± SEM, n = 6) of the same substance?
**A.** 0.023 ± 0.0034 µM

**Q.** And the “Bmax, ribosome binding” value (E. coli ribosome; purified E. coli ribosomes, AeaTMOF-FITC 0–0.2 μM, pH 7.6, 60 min at 30 °C, fluorescence, nonlinear regression, ± SEM, n = 6)?
**A.** 0.553 ± 0.023 pmol/μg ribosome

**Q.** For “NPTNLH [NebTMOF, NPTNLH, trypsin modulating oostatic factor of Neobellieria bullata, reference compound]”, which “Effect on translation of trypsin mRNA” value [1] is on record?
**A.** stop the translation of trypsin mRNA

**Q.** For “VDKPPYLPRPRPP [Oncocin112 (1–13), reference compound]”, which “Inhibition of luciferase biosynthesis at lowest concentration” value (bacterial 70 S ribosome; AeaTMOF at 0.001 μM, Oncocin112 (1–13) at 0.01 μM, 2 h at 37 °C) is on record?
**A.** do not inhibit the biosynthesis of luciferase

**Q.** What about the IC50 (bacterial 70 S ribosome; E. coli S30 lysate, pBestluc DNA, 2 h at 37 °C, peptide 0.001 to 750 μM, luminescence read-out, mean of three determinations, read-out: IC50, inhibition of luciferase biosynthesis (luminescence)) of the same substance?
**A.** 2 µM

**Q.** What about the “IC50 increase compared with AeaTMOF” value (bacterial 70 S ribosome; IC50 2 μM versus AeaTMOF) of the same substance?
**A.** twofold increase

**Q.** What about the E. coli growth ([2]; 630 nm) of the same substance?
**A.** significantly inhibited the growth of the E. coli cells

**Q.** And the “Viable colonies at end of incubation” value ([2]; initial 2.7 × 10^4 cells, LB medium, plated on LB agar, triplicates)?
**A.** 4–10 colonies

**Q.** What about the E. coli growth ([3]; SbmA^- cells expressing ABC-tmfA importer, 3 and 10 mM peptide, 37 °C, 18 h, 630 nm, p < 0.05 for inhibition) of the same substance?
**A.** grew at the same rate

**Q.** What about the “E. coli cell growth (discussion)” value ([3]; cells that only expressed ABCtmfA receptor/importer, up to 10 mM) of the same substance?
**A.** did not affect the cell growth, even at high concentrations of 10 mM

**Q.** What about the Importer used ([3]; inferred from growth of SbmA^+ and SbmA^- ABC-tmfA E. coli, 3 and 10 mM) of the same substance?
**A.** can only use the bacterial natural importer SbmA

**Q.** What about the “Effect on Beetle luciferase biosynthesis versus activity” value (luciferase) of the same substance?
**A.** inhibits Beetle luciferase biosynthesis and not its activity
